Measured values published in patent US20250145715A1, “B7-H3 TARGETING FUSION PROTEINS AND METHODS OF USE THEREOF” (GT Biopharma, Inc., priority 2021, published 2025).

Legend:
[1] = test system: HNSCC cell lines (Cal27 trio, Cal33 trio); assay: NK cell CD107a / IFN-γ flow cytometry against HNSCC lines; assay type: cell-based, human
Procedure: FIGS. 27A-27D illustrate the functional validation of B7-H3 TriKE. FIG. 27A is a graph illustrating CD107a expression in PBMCs from healthy donors incubated with Cal27 trio. FIG. 27B is a graph illustrating intracellular IFN-γ production in PBMCs from healthy donors incubated with Cal27 trio. FIG. 27C is a graph illustrating CD107a expression in PBMCs from healthy donors incubated with Cal33 trio. FIG. 27D is a graph illustrating intracellular IFN-γ production in PBMCs from healthy donors incubated with Cal33 trio.
NK cell responses against HNSCC lines in the presence of the B7-H3 TriKE were assessed through either flow cytometry based functional assays, to evaluate NK cell degranulation and cytokine secretion, or IncuCyte imaging assays, to directly assess target killing. NK cell degranulation and IFN-gamma production of B7-H3 TriKE-treated samples were higher compared to that of control samples treated with B7-H3 single domain or IL-15 alone. […] Ongoing experiments will evaluate the functionality and efficacy of the B7-H3 TriKE in vivo.
Frozen PBMCs (N=3) from healthy donors were incubated for 5 hours with (A-B) Cal27 trio and […] Cal33 trio (each trio consisting of a HNSCC WT line and 2 clones of HNSCC FANCA KO lines) in different treatments: no treatment or 3 nM IL-15, MOPC, B7-H3 SD and B7-H3TriKE to evaluate CD107a expression (as a marker for degranulation) and intracellular IFN-γ production. Error bars indicate standard error of mean, and statistical significance was determined as *p<0.05, **p<0.01, ***p<0.001 and ****p<0.0001

[2] = test system: PC3 prostate cancer cells; assay: NK cell CD107a / IFNγ flow cytometry against PC3; assay type: cell-based, human; settings: normal donor and prostate cancer patient NK cells, vs controls
Source text: FIG. 15A is a graph showing pooled analysis of proportion of NK cells from healthy donors or prostate cancer patients expressing CD107a+ (top) or IFNγ (bottom) against C4-2 targets (N=9 for healthy donors, N=3 for patients). FIG. 15B is a graph showing pooled analysis of proportion of NK cells from healthy donors or prostate cancer patients expressing CD107a+ (top) or IFNγ (bottom) against DU145 targets (N=9 for healthy donors, N=3 for patients). FIG. 15C is a graph showing pooled analysis of proportion of NK cells from healthy donors or prostate cancer patients expressing CD107a+ (top) or IFNγ (bottom) against LNCaP targets (N=9 for healthy donors, N=3 for patients). FIG. 15D is a graph showing pooled analysis of proportion of NK cells from healthy donors or prostate cancer patients expressing CD107a+ (top) or IFNγ (bottom) against PC3 targets (N=9 for healthy donors, N=3 for patients). * p<0.05, ** p<0.01, *** p<0.001, and **** p<0.0001.
ADCC was measured in a flow cytometry assay by evaluating degranulation via CD107a (lysosomal-associated membrane protein LAMP-1) and intracellular IFNγ production. Upon thawing, normal donor and patient-derived PBMCs or ascites cells were rested overnight (37° C., 5% CO2) in RPMI 1640 media supplemented with 10% fetal calf serum (RPMI-10). […] Samples were washed and evaluated in an LSRII flow cytometer (BD Biosciences, San Jose, CA, USA). […]

[3] = vs B7-H3 single domain or IL-15 alone

B7-H3 TriKE: camelid nanobodies targeting CD16 and B7-H3 joined by IL-15 and two linkers; sequence table equates the name with cam1615B7-H3
NK cell activity (CD107a, IFN-γ) against HNSCC ([1]; 3 nM, 5 hours, Cal27 trio and Cal33 trio, healthy donor PBMCs): induced NK cell activity against HNSCC | NK cell IFN-gamma production against HNSCC [1, 3]: higher | NK cell degranulation against HNSCC [1, 3]: higher

cam1615B7-H3: second-generation TriKE: humanized camelid anti-CD16 VHH, human wild-type IL-15, anti-B7-H3 mAb 376.96 scFv; SEQ ID NO:1
NK cell IFNγ production against PC3 [2]: enhanced | NK cell degranulation (CD107a) against PC3 [2]: enhanced
